Source: US9663458B2, “Diaminoguanidine derivatives and application thereof in preparation of animal growth promoters used in feed” (priority 2014, dated 2017)
Several values for one entry are separate records, joined by “and”; a condition that tells them apart may be missing. Equal entries are not always repeated. Where two headings read alike, the source gives them in different places.

Legend:
[1] = test system: cherry valley ducks; assay: Feeding trial (ducks); assay type: in vivo; details: 20 ppm in basal diet, 30 days; for Average feed conversion efficiency: control 2.16; for Average weight gain: control 55.8
Text: 800 1-day-old cherry valley ducks were divided into 8 groups, 100 ducks in each group. […] The compounds of IST_007 series can substantially enhance the productivity of the ducks, concluded from the results.

[2] = test system: Riemerella anatipestifer
[3] = test system: Clostridium perfringens; assay: microbe, parasite or virus in culture; assay type: cell-based
[4] = test system: yellow feather broilers (female); assay: Feeding trial (broilers); assay type: in vivo; details: 20 ppm in feed, 30 days; for Feed conversion efficiency: controls 2.15, 2.11, hydrochloride; for Average daily weight gain: controls 23.7, hydrochloride; for Average weight gain: controls 713, 712, hydrochloride; for Consumption: group of 50, controls 76.6, 75.2, hydrochloride
Text: 400 1-day-aged, healthy, fast-grown yellow feather broilers (female) in the same growing state and similar in weight were randomly divided into eight groups according to table 5, 50 broilers in each group. Broilers in each group were fed with different dosage of the IST_007 series compounds.

[5] = test system: Duroc-YorkShire-Landrace crossbred lean pigs; assay: Feeding trial (pigs); details: 25 mg/kg mixed with feed, 14 days; for Average daily weight gain: controls 0.44, 0.43, hydrochloride; for Feed conversion efficiency: controls 2.13, 2.11, hydrochloride; for Average weight gain: controls 6.2, 6.1, hydrochloride; for Consumption: group of 15, controls 198.3, 192.9, hydrochloride
[6] = read-out: Minimum inhibitory concentration (MIC), strain RA-FS-1308-1, in vitro
[7] = read-out: Minimum inhibitory concentration (MIC), strain RA-GD-1211-D, in vitro
[8] = read-out: Minimum inhibitory concentration (MIC), strain RA-HN-1211-C, in vitro
[9] = read-out: Minimum inhibitory concentration (MIC), strain CP-JM-1208-H, in vitro
[10] = read-out: Minimum inhibitory concentration (MIC), strain CP-JM-1210-B, in vitro
[11] = read-out: Minimum inhibitory concentration (MIC), strain CP-JM-1210-E, in vitro

Compound	Survival rate (%) [1]	Average feed conversion efficiency [1]	Average weight gain [1]	MIC [2, 6]	MIC [2, 7]	MIC [2, 8]	MIC [3, 9]	MIC [3, 10]	MIC [3, 11]	Survival rate (%) [4]	Feed conversion efficiency [4]	Average daily weight gain [4]	Average weight gain [4]	Consumption [4]	Average daily weight gain [5]	Feed conversion efficiency [5]	Average weight gain [5]	Consumption [5]	MIC ([2]; read-out: Minimum inhibitory concentration (MIC))
Cl.N=C(NN=Cc1ccc(OC2CCCC2)cc1)NN=Cc1ccc(OC2CCCC2)cc1 [IST_007_024, 1,3-bis[(4-cyclopentoxybenzylidene)amino]guanidine hydrochloride]	100%	2.09	63.1	0.39 µg/mL	0.78 µg/mL	0.39 µg/mL	1.56 µg/mL	1.56 µg/mL	3.13 µg/mL										
Cl.N=C(NN=Cc1ccc(OCc2ccccc2)cc1)NN=Cc1ccc(OCc2ccccc2)cc1 [IST_007_025, 1,3-bis[(4-benzyloxybenzylidene)amino]guanidine hydrochloride]				> 200 µg/mL	0.39 µg/mL	> 200 µg/mL	> 200 µg/mL	100 µg/mL	> 200 µg/mL										
CCC(C)Oc1ccc(C=NNC(=N)NN=Cc2ccc(OC(C)CC)cc2)cc1.Cl (centres unmarked) [IST_007_022, 1,3-bis[(4-sec-butoxybenzylidene)amino]guanidine hydrochloride]	100%	2.08	61.3	1.56 µg/mL	0.2 µg/mL	1.56 µg/mL	12.5 µg/mL	12.5 µg/mL	12.5 µg/mL										
CCCCOc1ccc(C=NNC(=N)NN=Cc2ccc(OCCCC)cc2)cc1.Cl [IST_007_005, 1,3-bis[(4-butoxybenzylidene)amino]guanidine hydrochloride]	100%	2.07	62.4	1.56 µg/mL	1.56 µg/mL	1.56 µg/mL	12.5 µg/mL	0.78 µg/mL	25 µg/mL	100%	1.86 and 1.84	26.5 g and 26.2 g	796 g and 787 g	74.1 kg and 72.5 kg					
CCCCCCCCOc1ccc(C=NNC(=N)NN=Cc2ccc(OCCCCCCCC)cc2)cc1.Cl [IST_007_020, 1,3-bis[(4-octoxybenzylidene)amino]guanidine hydrochloride]				> 200 µg/mL	> 200 µg/mL	> 200 µg/mL	> 200 µg/mL	> 200 µg/mL	> 200 µg/mL										
CCCCCOc1ccc(C=NNC(=N)NN=Cc2ccc(OCCCCC)cc2)cc1.Cl [IST_007_019, 1,3-bis[(4-pentoxybenzylidene)amino]guanidine hydrochloride]				> 200 µg/mL	0.39 µg/mL	> 200 µg/mL	> 200 µg/mL	> 200 µg/mL	> 200 µg/mL										
CC(C)Oc1ccc(C=NNC(=N)NN=Cc2ccc(OC(C)C)cc2)cc1.Cl [IST_007_003, 1,3-bis[(4-isopropoxybenzylidene)amino]guanidine hydrochloride]	100%	2.03	63.6	1.56 µg/mL	1.56 µg/mL	1.56 µg/mL	12.5 µg/mL	3.13 µg/mL	12.5 µg/mL	100%	1.86 and 1.82	26.3 g and 26.5 g	791 g and 795 g	73.7 kg and 72.3 kg	0.56 kg/day and 0.58 kg/day	1.84 and 1.65	7.8 kg and 8.2 kg	215.3 kg and 203.4 kg	
COc1ccc(/C=N/NC(=N)N/N=C/c2ccc(OC)cc2)cc1.Cl [IST_007_001, 1,3-bis[(4-methoxybenzylidene)amino]guanidine hydrochloride]	100%	2.01	62.1	6.25 µg/mL	3.13 µg/mL	3.13 µg/mL	12.5 µg/mL	1.56 µg/mL	50 µg/mL	100%	1.88 and 1.91	25.5 g and 25.8 g	764 g and 775 g	71.7 kg and 73.8 kg					
CCCOc1ccc(C=NNC(=N)NN=Cc2ccc(OCCC)cc2)cc1.Cl [IST_007_028, 1,3-bis[(4-propoxybenzylidene)amino]guanidine hydrochloride]	100%	2.04	61.6		0.39 µg/mL	0.39 µg/mL	1.56 µg/mL	1.56 µg/mL	1.56 µg/mL						0.55 kg/day and 0.52 kg/day	1.75 and 1.85	7.7 kg and 7.3 kg	201.3 kg and 202.5 kg	1.56 µg/mL
CCC(CC)Oc1ccc(C=NNC(=N)NN=Cc2ccc(OC(CC)CC)cc2)cc1.Cl [IST_007_023, 1,3-bis[[4-(3-pentoxy)benzylidene]amino]guanidine hydrochloride]	100%	2.05	62.4	1.56 µg/mL	0.78 µg/mL	1.56 µg/mL	12.5 µg/mL	12.5 µg/mL	12.5 µg/mL										
CCOc1ccc(C=NNC(=N)NN=Cc2ccc(OCC)cc2)cc1.Cl [IST_007_002, 1,3-bis[(4-ethoxybenzylidene)amino]guanidine hydrochloride]				> 100 µg/mL	> 100 µg/mL	> 100 µg/mL	> 100 µg/mL	0.2 µg/mL	> 100 µg/mL										
